In patent US20210299204A1 (priority 2020, published 2021):

Assay: Adverse outcome after a Depo-Provera shot for endometrial treatment
Conditions: inventor themself, one shot, 1987; attributed to the preservative in the drug

## CC(=O)O[C@]1(C(C)=O)CC[C@H]2[C@@H]3C[C@H](C)C4=CC(=O)CC[C@]4(C)[C@H]3CC[C@@]21C [Depo-Provera]
  adverse result of treatment: retinal atrophy
